The values that follow come from PubChem BioAssay (NCI).

Molecules are shown by their SMILES. Where “and” joins values, the source holds several entries; their conditions need not be identical. Identical values can stand only once.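 Dose response: 5 concentrations. Exposure: 48 h. Format: 96-well plates. Endpoint: linear interpolation; highest concentration if not reached. Here, GI50 denotes the concentration required for 50% inhibition of growth. The concentration for full growth arrest is given as TGI.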

Holding throughout (test): NCI anticancer screen, dose series, 48 h
Test [1] concerns CAKI-1 renal.
The test system of test [2] is HCT-15 colon.
The test system of test [3] is HT29 colon.
In test [4] the test system is MALME-3M melanoma.
Test [5] deals with RPMI-8226 leukemia.
Test [6] has as its system RXF 393 renal.
For test [7], the system named is SF-539 CNS.
Test [8] concerns SN12C renal.
Test [9] deals with SR leukemia.

`CCOC(=O)NC1CC2CCC1(OC)C=C2C` (centres undefined): the TGI in test [1], in test [2], in [3], in [4], in [5] and in [6] was greater than 100 µM in each case. Further, the TGI in [7], in [8] and in test [9] was greater than 100 µM each time.

With `CCCN1C(=O)CNC(=O)c2[nH]cnc21`, the TGI in test [1], in [2], in test [3], in test [4], in [5] and in test [6] was greater than 100 µM in each case. The TGI in [7], in test [8] and in test [9] was greater than 100 µM in each case.

As for `O=C(O)[C@@H](NS(=O)(=O)c1ccc([N+](=O)[O-])cc1)c1ccccc1`, the TGI in [1], in [2], in [3], in test [4], in test [5] and in [6] was greater than 100 µM in each case. Moreover, the TGI in test [7] and in [8] was greater than 100 µM throughout.

In the case of `C=C[C@H]1C=Cc2c(OC)cccc2[C@@H]1COP1(=S)NC(C)C(c2ccccc2)O1` (some centres undefined), the TGI in [3], in test [5], in [6], in test [7] and in test [8] was greater than 100 µM throughout.

In the case of `O=C(C=Nc1ccccc1C(=O)[O-])c1cccs1.O=C(C=Nc1ccccc1C(=O)[O-])c1cccs1.[Zn+2]`, the TGI in test [1] was greater than 100 µM; in [2] it was greater than 100 µM; in [3], greater than 100 µM; in test [4], greater than 10 µM; in test [7], greater than 100 µM; in test [8] it was greater than 10 µM. The same molecule came in with a TGI in test [9] greater than 100 µM.

As to `CC(C)c1cccc(C(C)C)c1NC(=O)CCC(=O)NN`, the TGI in test [1] was greater than 100 µM; in test [2], 37.7 µM; in test [3], greater than 100 µM; in [4], greater than 100 µM; in [5] it was greater than 100 µM; in test [7], greater than 100 µM. Also, in [8], the TGI was greater than 100 µM.

Regarding `Nc1nc(=Nc2ccccc2)ss1`, the TGI in test [1], in test [3], in test [4], in [5], in [6] and in [7] was greater than 100 µM in each case. For the same molecule, the TGI in test [8] and in test [9] was greater than 100 µM each time.

In the case of `C=C1C(=O)O[C@H]2[C@H]1CC/C(COC(=O)NCc1cc(OC)cc(OC)c1)=C\CC[C@@]1(C)O[C@@H]21`, the GI50 in [1] is 1.59 µM; in test [2], 0.77 µM; in test [3], 1.2 µM; in [4] it was 1.86 µM; in [5], 1.8 µM; in [6] it was 0.687 µM. For the same molecule, the GI50 was 1.54 µM in test [7] and 0.32 µM in test [9]. Further, the TGI in [1] turned out to be 3.1 µM; in [2] it was 2.25 µM; in test [3], 2.96 µM; in test [4], 3.83 µM; in test [5], 6.25 µM; in [6] it was 2.07 µM. The TGI in test [7] worked out at 3.02 µM; in test [9], 2.91 µM.

For `FC(F)(F)c1cccc(C2SCc3nc4ccccc4n32)c1` (centres undefined), the TGI in test [1], in [3], in [4], in test [5], in test [6] and in [7] was greater than 100 µM in each case. In addition, the TGI in test [8] and in [9] was greater than 100 µM throughout.

`O=C(Cc1ccccc1)NS(=O)(=O)c1ccccc1`: the TGI in [1], in test [3], in test [4], in [5], in test [6] and in test [7] was greater than 100 µM throughout. In addition, the TGI in test [8] and in [9] was greater than 100 µM throughout.

Turning to `CCOC(=O)c1cc(OC(=O)CC)c2c(OC)ccc(OC)c2c1`, the TGI in test [1] was greater than 100 µM; in test [2], 96.6 µM; in test [4], greater than 100 µM; in [5], greater than 100 µM; in [6] it was 69.7 µM; in test [7] it was greater than 100 µM. For the same molecule, the TGI in test [8] and in [9] was greater than 100 µM each time.

`COc1ccccc1NC(=O)C(CC(C(=O)Nc1ccccc1OC)/C(C)=N/NC(=O)c1ccccc1O)/C(C)=N/NC(=O)c1ccccc1O` (centres undefined): the TGI in [1], in test [3], in [4], in [5], in test [6] and in test [7] was greater than 100 µM in each case. The TGI in test [8] is greater than 100 µM.

For `FC(F)(F)c1nc(-c2ccccc2)oc1Sc1oc(-c2ccccc2)nc1C(F)(F)F`, the TGI in test [1] was 65.7 µM; in test [2], greater than 100 µM; in [3], greater than 100 µM; in [4], greater than 100 µM; in [5], greater than 100 µM; in test [6], greater than 100 µM. In addition, the TGI in test [7], in test [8] and in test [9] was greater than 100 µM throughout.

Take `Cc1ccc(N2C(=O)C(Cl)=C(Cl)C2=O)cc1`: the TGI in test [1] is 31.4 µM; in test [2], 33.3 µM; in [3] it was 33.3 µM; in [4], 33.7 µM; in test [5], 52.8 µM; in [6] it was 25.4 µM. Moreover, the TGI in [7] amounted to 64.2 µM; in [8] it was 33.7 µM; in [9], 54.2 µM.

Turning to `Cn1nc2ccccc2cc1=O`, the TGI in test [1], in test [2], in test [3], in [4], in [5] and in test [7] was greater than 100 µM in each case. The TGI in [8] was greater than 100 µM.

Take `C[CH2][Sn]([CH2]C)([O]C(=O)c1ccc(F)cc1)[O][Sn]([CH2]C)([CH2]C)[O]C(=O)c1ccc(F)cc1`: the GI50 in test [1] is 12.2 µM; in test [2], greater than 100 µM; in test [3], greater than 100 µM; in [4], 16.9 µM; in test [6], 15.7 µM; in [7], 67.5 µM. Besides, the GI50 in [8] is 67.2 µM; in [9], 41.1 µM. In addition, the TGI is 24.9 µM in test [1]; greater than 100 µM in [2]; greater than 100 µM in test [3]; 32 µM in [4]; 29.9 µM in test [6]; greater than 100 µM in test [7]. The TGI in test [8] and in test [9] was greater than 100 µM each time.

Regarding `COC(=O)Cc1cc(=O)n2c([nH]c3ccccc32)c1C#N`, the TGI in test [1], in [2], in test [3], in test [4], in test [5] and in test [6] was greater than 100 µM throughout. Moreover, the TGI in test [7], in test [8] and in [9] was greater than 100 µM throughout.

In the case of `C#Cc1cc(CN(CC(=O)OC(C)(C)C)CC(=O)OC(C)(C)C)nc(CN(CC(=O)OC(C)(C)C)CC(=O)OC(C)(C)C)c1`, the TGI in test [1] is 33.1 µM; in test [2] it was greater than 100 µM; in test [3], greater than 100 µM; in test [4] it was 20.9 µM; in [5], 6.25 µM; in test [6], 14.2 µM. For the same molecule, the TGI was 32.9 µM in test [7] and greater than 100 µM in [8].

On to `c1ccc2c(c1)[nH]c1c2ncc2[nH]c3ccccc3c21`, for which the TGI was 13.7 µM in test [1]; 7.7 µM in test [2]; 11.1 µM in test [3]; 47.1 µM in [4]; 6.27 µM in test [5]; 7.21 µM in test [7]. This molecule displayed a TGI in test [8] of 13.6 µM.

In the case of `Cc1c(CC/C(=N\Nc2ccc([N+](=O)[O-])cc2[N+](=O)[O-])c2ccccc2)c2ccccc2n1C`, the TGI in [1] was greater than 100 µM; in test [2], greater than 100 µM; in test [3], greater than 100 µM; in [4], greater than 100 µM; in [5], greater than 100 µM; in test [6] it was greater than 83.6 µM. The TGI in test [7] and in [8] was greater than 100 µM in each case.

`Cc1ccc(NC(=O)CC2C(=O)Nc3ccccc3S2=O)c(C)c1` (centres undefined): the TGI in test [1] is greater than 48.4 µM; in [2] it was 25.4 µM; in test [3] it was 20.4 µM; in test [4] it was greater than 68.2 µM; in [5], 44.8 µM; in [6], 24.1 µM. Also, the TGI in test [7] came out at 26.3 µM; in [8], 96.7 µM; in [9], 7.54 µM.

In the case of `CCCCCCCCCCCCC(CCCCCCCCCCCC)OP(=O)(O)O`, the TGI in test [1], in test [2], in test [3], in test [4], in [5] and in test [6] was greater than 100 µM throughout. The TGI in test [7], in test [8] and in test [9] was greater than 100 µM throughout.

Take `CCOC(=O)C(C(=O)OCC)=c1sc(=C(C(=O)OCC)C(=O)OCC)s1`: the TGI in [1], in test [2], in [3], in test [4], in test [5] and in [6] was greater than 100 µM throughout. This molecule gave a TGI in test [8] greater than 100 µM.

`COc1ccc(C2C3=C(COC3=O)Oc3cc4c(cc32)OCO4)cc1` (centres undefined): the TGI is greater than 100 µM in test [1]; greater than 100 µM in test [2]; 22.5 µM in test [3]; greater than 100 µM in test [4]; greater than 100 µM in test [5]; greater than 100 µM in test [6]. The TGI in test [7] was 56.6 µM; in [8] it was greater than 100 µM.

On to `CC1=Nc2ccccc2C12C(c1ccccc1)C(c1ccccc1)C(=O)N1c3ccccc3CC12` (centres undefined), for which the TGI in test [1], in test [2], in test [3], in test [4], in test [5] and in test [6] was greater than 100 µM each time. Further, the TGI in [7], in [8] and in test [9] was greater than 100 µM each time.

As to `COC(=O)[C@@]12C=CC(=O)[C@H]3C[C@@H](C(C(C)C)C1)[C@]32OC` (some centres undefined), the TGI in test [1], in test [2], in test [3], in test [4], in test [5] and in [6] was greater than 100 µM each time. Also, the TGI in test [7] and in [8] was greater than 100 µM throughout.

As for `O=NN(CCCl)C(=O)N[C@H]1CCCC[C@@H]1Cl`, the TGI in test [1], in [2], in [3], in test [4], in [5] and in test [6] was greater than 100 µM throughout. For the same molecule, the TGI is greater than 100 µM in test [7], greater than 100 µM in [8] and 17 µM in test [9].

Take `COC(C)(C)[C@H](O)C(O)CC(C)[C@@H]1CCC23CC12CCC1[C@@]2(C)CCC(OC(C)=O)C(C)(C)C2CC(OC2OC(COC(C)=O)C(O)C(O)C2O)[C@]13C` (some centres undefined): the GI50 was 8.27 µM in [1]; 6.86 µM in test [2]; 1.83 µM in [3]; 12.8 µM in [4]; 3.77 µM in test [5]; 5.66 µM in [7]. For the same molecule, in test [8], the GI50 was 6.29 µM. In addition, the TGI in test [1] was 10.2 µM and 20.2 µM; in test [2], 6.28 µM and 19.8 µM; in [3], 2.49 µM and 3.67 µM; in test [4], 17.1 µM and 26 µM; in [5] it was 6.54 µM and 17.1 µM; in test [6], 11.8 µM. Further, the TGI in test [7] is 9.41 µM and 17.2 µM; in test [8], 10.6 µM and 19.4 µM.

Take `COC(=O)C1=C(C)N(NC(N)=O)C(C)(O)C12CCOC2=O` (centres undefined): the TGI in [1], in test [2], in test [3], in test [4], in test [5] and in test [7] was greater than 100 µM each time. In test [8], this molecule showed a TGI greater than 100 µM.
